Here are results for 22 compounds from ChEMBL document CHEMBL5233214, “Tyrosinase inhibitors as potential antibacterial agents” (Eur J Med Chem, 2020).

In assay [1] the test system is Staphylococcus epidermidis. Kind of assay: Antibacterial activity against Staphylococcus epidermidis ATCC 14990 assessed as inhibition of bacterial growth incubated for 18 to 24 hrs by serial dilution method. Type of assay: functional. As to conditions: time 18-24 hrs.
The next assay has as its system Salmonella typhimurium. As to the kind of experiment: Antibacterial activity against Salmonella enterica subsp. enterica serovar Typhimurium ATCC 14028 assessed as inhibition of bacterial growth incubated for 18 to 24 hrs by serial dilution method. Type of assay: functional. As to conditions: time 18-24 hrs.
Assay [2] relates to Bacillus subtilis. Kind of assay: Antibacterial activity against Bacillus subtilis ATCC 66333 assessed as inhibition of bacterial growth incubated for 18 to 24 hrs by serial dilution method. The conditions noted are these: time 18-24 hrs. Type of assay: functional.
In assay [3] the target is T1, Tyrosinase (Agaricus bisporus, UniProt O42713).
T1 sequence (O42713 whole entry): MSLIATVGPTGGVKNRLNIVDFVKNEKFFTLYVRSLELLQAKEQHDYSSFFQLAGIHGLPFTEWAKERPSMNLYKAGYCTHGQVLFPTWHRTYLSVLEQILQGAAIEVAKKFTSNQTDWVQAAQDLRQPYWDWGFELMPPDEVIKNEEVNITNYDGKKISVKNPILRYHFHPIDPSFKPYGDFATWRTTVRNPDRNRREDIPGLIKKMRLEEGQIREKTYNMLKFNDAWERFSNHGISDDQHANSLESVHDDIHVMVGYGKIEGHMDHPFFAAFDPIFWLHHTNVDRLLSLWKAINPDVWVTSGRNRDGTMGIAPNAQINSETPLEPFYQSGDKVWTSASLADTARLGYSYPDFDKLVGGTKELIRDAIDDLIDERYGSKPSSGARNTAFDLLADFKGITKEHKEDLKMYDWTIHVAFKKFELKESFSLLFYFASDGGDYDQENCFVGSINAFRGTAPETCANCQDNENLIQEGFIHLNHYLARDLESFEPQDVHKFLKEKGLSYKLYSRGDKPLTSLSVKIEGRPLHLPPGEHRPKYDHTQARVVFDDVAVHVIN
As to the kind of experiment: Inhibition of mushroom tyrosinase using L-DOPA as substrate incubated for 20 mins by microplate reader assay.

For a further assay, the system named is Proteus vulgaris. Kind of assay: Antibacterial activity against Proteus vulgaris ATCC 13315 assessed as inhibition of bacterial growth incubated for 18 to 24 hrs by serial dilution method. The format is functional. The conditions noted are these: time 18-24 hrs.
A further assay has as its system Klebsiella pneumoniae. Kind of assay: Antibacterial activity against Klebsiella pneumoniae ATCC 13883 assessed as inhibition of bacterial growth incubated for 18 to 24 hrs by serial dilution method. Type of assay: functional. The conditions noted are these: time 18-24 hrs.
The test system of a further assay is Enterobacter cloacae. Kind of assay: Antibacterial activity against Enterobacter cloacae ATCC 13047 assessed as inhibition of bacterial growth incubated for 18 to 24 hrs by serial dilution method. The format is functional. As to conditions: time 18-24 hrs.
Assay [4] has as its target T1, Tyrosinase. Kind of assay: Inhibition of mushroom tyrosinase using L-DOPA as substrate pre-incubated for 10 mins followed by substrate addition and measured after 20 mins by microplate reader assay.
Assay [5] concerns Staphylococcus epidermidis. As to the kind of experiment: microbe, parasite or virus in culture. As to conditions: TISTR 517.
Description: Antibacterial activity against Staphylococcus epidermidis TISTR 517 assessed as inhibition of bacterial growth by broth microdilution method
Assay [6] has as its system Staphylococcus aureus. Kind of assay: microbe, parasite or virus in culture. The conditions noted are these: ATTC 25923.
Description: Antibacterial activity against Staphylococcus aureus ATTC 25923 assessed as inhibition of bacterial growth by broth microdilution method
Assay [7] deals with Staphylococcus aureus. Kind of assay: Antibacterial activity against Methicillin-resistant Staphylococcus aureus assessed as inhibition of bacterial growth by broth microdilution method. Background: Dilution methods test growth across graded concentrations, often in twofold steps.
Assay [8] deals with T2, Tyrosinase (Homo sapiens, UniProt P14679).
T2 sequence (P14679 whole entry): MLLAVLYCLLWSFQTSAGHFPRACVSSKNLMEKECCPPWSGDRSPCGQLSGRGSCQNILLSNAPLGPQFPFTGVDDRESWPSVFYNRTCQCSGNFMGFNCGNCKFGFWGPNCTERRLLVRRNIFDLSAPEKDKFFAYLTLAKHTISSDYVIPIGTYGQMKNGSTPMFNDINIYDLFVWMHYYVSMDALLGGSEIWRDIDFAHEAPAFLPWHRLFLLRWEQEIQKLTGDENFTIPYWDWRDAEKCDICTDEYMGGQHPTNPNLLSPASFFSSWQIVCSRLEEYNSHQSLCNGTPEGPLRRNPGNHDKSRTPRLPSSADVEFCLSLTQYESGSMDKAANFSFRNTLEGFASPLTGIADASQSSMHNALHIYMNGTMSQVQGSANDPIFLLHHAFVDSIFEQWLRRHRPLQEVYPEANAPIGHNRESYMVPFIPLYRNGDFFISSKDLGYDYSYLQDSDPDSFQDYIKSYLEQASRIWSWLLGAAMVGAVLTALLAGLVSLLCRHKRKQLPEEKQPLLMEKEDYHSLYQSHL
Kind of assay: Inhibition of tyrosinase (unknown origin) using DOPA as substrate incubated for 15 min by spectrophotometer assay.

A further assay concerns Enterococcus faecalis. As to the kind of experiment: Antibacterial activity against Enterococcus faecalis assessed as zone of inhibition. The format is functional, organism-based.
Another assay concerns Fusobacterium nucleatum. As to the kind of experiment: Antibacterial activity against Fusobacterium nucleatum ATCC 10953 assessed as inhibition of bacterial growth incubated for 48 hrs by microbroth dilution method. The format is functional.
For assay [9], the system named is Staphylococcus aureus. As to the kind of experiment: Antibacterial activity against Staphylococcus aureus assessed as zone of inhibition. Type of assay: functional.
Assay [10] deals with T1, Tyrosinase. As to the kind of experiment: Inhibition of mushroom tyrosinase using L-DOPA as substrate incubated for 10 mins by spectrophotometer assay.
Assay [11] has as its system Bacillus subtilis. Kind of assay: Antibacterial activity against Bacillus subtilis assessed as zone of inhibition at 300 ug/ml. Type of assay: functional. As to conditions: read-out: IZ.
The subject of assay [12] is Staphylococcus aureus. As to the kind of experiment: Antibacterial activity against Methicillin-resistant Staphylococcus aureus assessed as inhibition of bacterial growth by agar dilution method. Type of assay: functional.
Assay [13] deals with Bacillus subtilis. Kind of assay: Antibacterial activity against Bacillus subtilis ATCC 9372 assessed as zone of inhibition at 10 ug per disk incubated for 12 hrs by paper-disk diffusion assay. Type of assay: functional. As to conditions: read-out: IZ. Background: A growth-free zone around the sample is the usual read-out of agar diffusion tests.
The subject of assay [14] is Staphylococcus aureus. Kind of assay: Antibacterial activity against Staphylococcus aureus ATCC 13301 assessed as zone of inhibition at 10 ug per disk incubated for 12 hrs by paper-disk diffusion assay. Type of assay: functional. As to conditions: read-out: IZ.
Another assay deals with Bacillus cereus. Kind of assay: Antibacterial activity against Bacillus cereus ATCC 27348 assessed as zone of inhibition at 10 ug per disk incubated for 12 hrs by paper-disk diffusion assay. Type of assay: functional. The conditions noted are these: read-out: IZ.
For assay [15], the system named is Staphylococcus epidermidis. Kind of assay: Antibacterial activity against Staphylococcus epidermidis ATCC 35984 assessed as inhibition of bacterial growth incubated for 24 hrs by two-fold serial dilution method. The format is functional.

In brackets after ≈: the same amount, converted by molar mass. Where only a bound is given, the exact number is not on record here.

Usually IC50 stands for the concentration at which inhibition is half-maximal. Lower therefore signals higher potency.

As to `F[B-]1(F)Nc2ccccc2C2=[N+]1NC(c1ccccn1)C2` (configuration not stated), the MIC (in assay [1]; in the assay on Salmonella typhimurium; in the assay with Bacillus subtilis [2]; in the assay on Proteus vulgaris; with Klebsiella pneumoniae; in the assay on Enterobacter cloacae) was 37.5 µg/mL (≈ 131 µM) each time. At Tyrosinase [3], this compound had an IC50 of 350 µM.
Regarding `CC(C)=CCC/C(C)=C/Cc1c(O)ccc(C=O)c1O`, at Tyrosinase [4], the concentration for half-maximal inhibition (IC50) was greater than 729 µM. Besides, the MIC (in [5]; against Staphylococcus aureus [6]; in the assay with Staphylococcus aureus [7]) was less than 8 µg/mL each time.
In the case of `C[C@@H]1O[C@@H](OC[C@H]2O[C@@H](Oc3c(-c4ccc(O)c(O)c4)oc4cc(O)cc(O)c4c3=O)[C@H](O)[C@@H](O)[C@@H]2O)[C@H](O)[C@H](O)[C@H]1O` [RUTIN], on Tyrosinase [8], the IC50 was 1.4 µM.
For the compound `Nc1ccccc1C1=NNC(c2cccnc2)C1` (configuration not stated), the MIC in [1] was 150 µg/mL (≈ 629 µM). Besides, at Tyrosinase [3], the midpoint of inhibition, the IC50, lay at 420 µM.
On to `Nc1ccccc1C1=NNC(c2ccccn2)C1` (configuration not stated), for which the MIC (in assay [1]; with Salmonella typhimurium; in the assay on Bacillus subtilis [2]; in the assay on Proteus vulgaris; with Klebsiella pneumoniae; in the assay on Enterobacter cloacae) was 18.8 µg/mL (≈ 78.7 µM) each time. The compound further showed an IC50 at Tyrosinase [3] of 420 µM.
Regarding `O=c1c(O[C@@H]2O[C@H](CO)[C@H](O)[C@H](O)[C@H]2O)c(-c2ccc(O)c(O)c2)oc2cc(O)cc(O)c12` [HYPEROSIDE], at Tyrosinase [8], the 50% inhibitory concentration (IC50) was 1.64 µM. This counts as single-digit micromolar.
As for `F[B-]1(F)Nc2ccccc2C2=[N+]1NC(c1cccnc1)C2` (configuration not stated), in assay [1], the MIC was 18.8 µg/mL (≈ 65.5 µM). This compound had an IC50 against Tyrosinase [3] of 350 µM.
With GENTAMICIN, the inhibition zone (IZ) in the assay with Enterococcus faecalis was determined as 10.6 mm.
With `COc1c(N2C[C@@H]3CCCN[C@@H]3C2)c(F)cc2c(=O)c(C(=O)O)cn(C3CC3)c12` [MOXIFLOXACIN], it took 2.99 µM to reach half-maximal inhibition against Tyrosinase [3] (IC50).
`CC(C)=CCC[C@@](C)(O)[C@@H]1CC=C(C)CC1` showed an IC50 at Tyrosinase [8] of 2860 µM. Moreover, the MIC in the assay on Fusobacterium nucleatum was found to be 8 µg/mL (≈ 36 µM).
Regarding `CN[C@@H]1[C@H](O[C@H]2[C@H](O[C@H]3[C@H](O)[C@@H](O)[C@H](N=C(N)N)[C@@H](O)[C@@H]3N=C(N)N)O[C@@H](C)[C@]2(O)C=O)O[C@@H](CO)[C@H](O)[C@H]1O` [STREPTOMYCIN], in the assay on Staphylococcus aureus [9], the “inhibition zone (IZ)” value is reported as 20.3 mm.
Consider `Nc1ccccc1C1=NNC(c2ccncc2)C1` (configuration not stated), for which, in assay [1], the MIC turned out to be 37.5 µg/mL (≈ 157 µM). Besides, the half-maximal inhibitory concentration (IC50) on Tyrosinase [3] is 420 µM.
Compound `C=C(C)C(CCC(C)(C)O)Cc1c(O)cc(OC)c2c1O[C@H](c1ccc(O)cc1O)CC2=O` (some centres not stated) showed an IC50 on Tyrosinase [10] of 0.11 µM.
Consider `CC1(C)S[C@@H]2[C@H](NC(=O)[C@H](N)c3ccccc3)C(=O)N2[C@H]1C(=O)O` [AMPICILLIN], for which the zone of inhibition at 300 µg/mL in the assay with Bacillus subtilis [11] is 17.9 mm.
In the case of `O=c1cc(-c2ccc(O)c(O)c2)oc2cc(O)cc(O)c12` [LUTEOLIN], in the assay with Staphylococcus aureus [12], the MIC was determined as 31.2 µg/mL (≈ 109 µM). Besides, inhibition on Tyrosinase [8] was half-maximal at 2.14 µM (IC50).
Turning to `C=C(C)C(CC=C(C)C)Cc1c(O)cc(OC)c2c1O[C@H](c1ccc(O)cc1O)CC2=O` (some centres not stated) [KURARINONE], the zone of inhibition at 10 µg/disc in the assay on Bacillus subtilis [13], with Staphylococcus aureus [14] and with Bacillus cereus was 14 mm in each case. The same compound gave a concentration for half-maximal inhibition (IC50) against Tyrosinase [10] of 2.19 µM.
The compound `C[C@@H]1O[C@@H](OC[C@H]2O[C@@H](Oc3c(-c4ccc(O)cc4)oc4cc(O)cc(O)c4c3=O)[C@H](O)[C@@H](O)[C@@H]2O)[C@H](O)[C@H](O)[C@H]1O` [NICOTIFLOROSIDE] showed an IC50 against Tyrosinase [8] of 1.53 µM.
`F[B-]1(F)Nc2ccccc2C2=[N+]1NC(c1ccncc1)C2` (configuration not stated): the MIC in assay [1] worked out at 37.5 µg/mL (≈ 131 µM). The half-maximal inhibitory concentration (IC50) against Tyrosinase [3] was greater than 699 µM.
For the compound `C=C(C)C(CC=C(C)C)Cc1c(O)cc(O)c2c1O[C@H](c1ccc(O)cc1O)CC2=O` (some centres not stated), the zone of inhibition at 10 µg/disc in the assay with Bacillus subtilis [13], with Staphylococcus aureus [14] and with Bacillus cereus was 14 mm each time. The compound further gave an IC50 against Tyrosinase [10] of 4.71 µM. In [15], the MIC is 3.12 µg/mL (≈ 7.36 µM).
As to `O=c1cc2n(c3ccccc13)[B-](F)(F)[n+]1ccccc1-2`, the MIC (in assay [1]; in the assay with Salmonella typhimurium; in the assay on Bacillus subtilis [2]; with Proteus vulgaris; in the assay on Klebsiella pneumoniae; in the assay with Enterobacter cloacae) was no more than 18.8 µg/mL throughout. This compound gave a half-maximal inhibitory concentration (IC50) against Tyrosinase [3] greater than 741 µM.
For `CCn1cc(C(=O)O)c(=O)c2cc(F)c(N3CCNCC3)cc21` [NORFLOXACIN], the half-inhibitory concentration (IC50) at Tyrosinase [3] is 2.19 µM.
On Tyrosinase [8], `OCCc1ccccc1` [PHENYLETHYL ALCOHOL] had an IC50 of 2580 µM. Moreover, the MIC with Fusobacterium nucleatum is 8 µg/mL (≈ 65.5 µM).
